Columns and labels:
[1] = target: T1, Cholinesterases; ACHE & BCHE (Homo sapiens) (UniProt P06276+P22303); assay: Selectivity index, ratio of IC50 for human AChE to IC50 for human BChE; assay type: protein assay
Acetylcholinesterase [2] = target: T2, Acetylcholinesterase (Homo sapiens, UniProt P22303); assay: Inhibition of human AChE
Cholinesterase [3] = target: T3, Cholinesterase (Homo sapiens, UniProt P06276); assay: Inhibition of human BChE
Acetylcholinesterase [4] = target: T4, Acetylcholinesterase (Electrophorus electricus, UniProt O42275); assay: Inhibition of electric eel AChE using acetylthiocholine iodide as substrate incubated for 30 mins by Ellman's method
T4 sequence (O42275 whole entry): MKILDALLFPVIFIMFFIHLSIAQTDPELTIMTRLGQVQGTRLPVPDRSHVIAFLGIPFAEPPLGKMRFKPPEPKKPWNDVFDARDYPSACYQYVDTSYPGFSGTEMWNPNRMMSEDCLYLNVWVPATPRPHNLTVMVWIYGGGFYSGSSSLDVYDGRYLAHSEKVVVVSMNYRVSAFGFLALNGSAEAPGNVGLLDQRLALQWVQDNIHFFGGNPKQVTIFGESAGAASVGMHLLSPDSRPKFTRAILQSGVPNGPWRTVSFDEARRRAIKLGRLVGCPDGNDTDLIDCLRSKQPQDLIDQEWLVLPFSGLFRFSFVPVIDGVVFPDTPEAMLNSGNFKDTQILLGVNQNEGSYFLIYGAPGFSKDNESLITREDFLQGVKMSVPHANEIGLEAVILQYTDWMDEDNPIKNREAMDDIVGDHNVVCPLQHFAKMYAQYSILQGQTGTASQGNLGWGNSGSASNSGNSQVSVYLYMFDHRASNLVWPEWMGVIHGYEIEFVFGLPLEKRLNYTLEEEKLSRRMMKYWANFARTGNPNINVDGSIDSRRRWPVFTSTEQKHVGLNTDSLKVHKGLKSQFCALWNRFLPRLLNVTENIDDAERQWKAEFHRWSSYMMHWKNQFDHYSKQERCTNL

Acetylcholinesterase [5] = target: T4, Acetylcholinesterase; assay: Binding affinity to electric eel AChE assessed as inhibition constant using acetylthiocholine iodide as substrate incubated for 30 mins by Ellman's method
Cholinesterase [6] = target: T5, Cholinesterase (Equus caballus, UniProt P81908); assay: Inhibition of equine BChE
T5 sequence (P81908 whole entry): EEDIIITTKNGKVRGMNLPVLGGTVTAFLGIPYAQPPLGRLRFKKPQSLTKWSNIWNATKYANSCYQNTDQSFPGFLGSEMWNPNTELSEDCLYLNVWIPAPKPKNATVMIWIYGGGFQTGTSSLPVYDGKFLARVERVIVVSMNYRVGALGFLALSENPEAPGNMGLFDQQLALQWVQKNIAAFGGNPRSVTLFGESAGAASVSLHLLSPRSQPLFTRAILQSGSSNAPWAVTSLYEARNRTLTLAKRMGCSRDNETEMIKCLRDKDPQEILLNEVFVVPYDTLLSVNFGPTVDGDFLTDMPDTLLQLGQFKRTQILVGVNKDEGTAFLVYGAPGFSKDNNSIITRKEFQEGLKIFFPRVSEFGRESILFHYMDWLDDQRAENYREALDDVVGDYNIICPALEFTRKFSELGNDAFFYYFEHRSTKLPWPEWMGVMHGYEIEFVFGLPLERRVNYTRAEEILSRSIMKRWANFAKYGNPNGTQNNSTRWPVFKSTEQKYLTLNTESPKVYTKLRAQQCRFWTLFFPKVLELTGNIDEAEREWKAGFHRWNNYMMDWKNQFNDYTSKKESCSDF

Acetylcholinesterase [7] = target: T4, Acetylcholinesterase; assay: Inhibition of electric eel AChE
Cholinesterase [8] = target: T3, Cholinesterase; assay: Inhibition of recombinant human serum BChE using acetylthiocholine iodide as substrate preincubated for 20 mins followed by substrate addition by Ellman's method
Acetylcholinesterase [9] = target: T2, Acetylcholinesterase; assay: Inhibition of recombinant human serum AChE using acetylthiocholine iodide as substrate preincubated for 20 mins followed by substrate addition by Ellman's method
[10] = target: T1, Cholinesterases; ACHE & BCHE (Homo sapiens); assay: Selectivity index, ratio of IC50 for recombinant human serum BChE to IC50 for recombinant human serum AChE; assay type: protein assay
[11] = target: T1, Cholinesterases; ACHE & BCHE (Homo sapiens); assay: Selectivity index, ratio of IC50 for AChE (unknown origin) to BChE (unknown origin); assay type: protein assay
Acetylcholinesterase [12] = target: T6, Acetylcholinesterase (Rattus norvegicus, UniProt P37136); assay: Inhibition of Sprague-Dawley rat cortex AChE using acetylthiocholine iodide as substrate incubated for 15 mins in presence of iso-OMPA inhibitor by Ellman's method
T6 sequence (P37136 whole entry): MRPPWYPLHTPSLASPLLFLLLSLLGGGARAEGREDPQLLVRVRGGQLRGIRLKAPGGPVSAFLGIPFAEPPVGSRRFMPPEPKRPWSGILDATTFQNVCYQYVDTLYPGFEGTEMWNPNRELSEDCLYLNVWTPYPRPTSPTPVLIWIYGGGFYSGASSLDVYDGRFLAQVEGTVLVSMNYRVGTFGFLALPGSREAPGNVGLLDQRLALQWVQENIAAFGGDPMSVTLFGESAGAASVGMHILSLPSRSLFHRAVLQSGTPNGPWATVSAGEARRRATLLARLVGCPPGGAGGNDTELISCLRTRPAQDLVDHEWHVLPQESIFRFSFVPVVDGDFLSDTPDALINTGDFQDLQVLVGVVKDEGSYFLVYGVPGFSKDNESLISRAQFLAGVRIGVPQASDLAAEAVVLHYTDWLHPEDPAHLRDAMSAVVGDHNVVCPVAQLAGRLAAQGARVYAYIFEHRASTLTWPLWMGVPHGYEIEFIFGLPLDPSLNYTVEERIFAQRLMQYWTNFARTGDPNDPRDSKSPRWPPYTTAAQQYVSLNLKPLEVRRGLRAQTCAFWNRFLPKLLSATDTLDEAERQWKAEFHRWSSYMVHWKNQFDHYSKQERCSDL

Cholinesterase [13] = target: T3, Cholinesterase; assay: Inhibition of BChE (unknown origin)
Acetylcholinesterase [14] = target: T2, Acetylcholinesterase; assay: Inhibition of AChE (unknown origin)
Acetylcholinesterase [15] = target: T2, Acetylcholinesterase; assay: Inhibition of recombinant human serum AChE using acetylthiocholine iodide as substrate preincubated for 20 mins followed by substrate addition measured after 5 mins by Ellman's method
Cholinesterase [16] = target: T3, Cholinesterase; assay: Inhibition of recombinant human serum BChE using butyrylthiocholine iodide as substrate preincubated for 20 mins followed by substrate addition measured after 5 mins by Ellman's method
Acetylcholinesterase [17] = target: T6, Acetylcholinesterase; assay: Inhibition of rat AChE
Acetylcholinesterase [18] = target: T2, Acetylcholinesterase; assay: Inhibition of recombinant human AChE
[19] = target: T7, Amine oxidase [flavin-containing] B (Homo sapiens, UniProt P27338); assay: Inhibition of MAO-B (unknown origin)
T7 sequence (P27338 whole entry): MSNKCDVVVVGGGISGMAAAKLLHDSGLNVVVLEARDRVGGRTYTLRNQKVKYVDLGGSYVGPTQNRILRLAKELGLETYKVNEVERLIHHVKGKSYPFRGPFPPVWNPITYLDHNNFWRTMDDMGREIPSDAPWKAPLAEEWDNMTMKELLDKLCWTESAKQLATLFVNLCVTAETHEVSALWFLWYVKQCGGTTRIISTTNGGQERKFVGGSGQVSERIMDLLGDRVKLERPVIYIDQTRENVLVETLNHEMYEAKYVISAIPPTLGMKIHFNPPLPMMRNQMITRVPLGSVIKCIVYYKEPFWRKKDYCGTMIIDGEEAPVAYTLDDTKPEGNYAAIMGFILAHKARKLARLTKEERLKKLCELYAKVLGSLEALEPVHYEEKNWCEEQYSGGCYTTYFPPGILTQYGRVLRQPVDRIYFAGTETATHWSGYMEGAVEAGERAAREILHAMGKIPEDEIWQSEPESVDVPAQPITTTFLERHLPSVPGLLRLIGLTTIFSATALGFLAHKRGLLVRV

[20] = target: T8, Amine oxidase [flavin-containing] A (Homo sapiens, UniProt P21397); assay: Inhibition of MAO-A (unknown origin)
T8 sequence (P21397 whole entry): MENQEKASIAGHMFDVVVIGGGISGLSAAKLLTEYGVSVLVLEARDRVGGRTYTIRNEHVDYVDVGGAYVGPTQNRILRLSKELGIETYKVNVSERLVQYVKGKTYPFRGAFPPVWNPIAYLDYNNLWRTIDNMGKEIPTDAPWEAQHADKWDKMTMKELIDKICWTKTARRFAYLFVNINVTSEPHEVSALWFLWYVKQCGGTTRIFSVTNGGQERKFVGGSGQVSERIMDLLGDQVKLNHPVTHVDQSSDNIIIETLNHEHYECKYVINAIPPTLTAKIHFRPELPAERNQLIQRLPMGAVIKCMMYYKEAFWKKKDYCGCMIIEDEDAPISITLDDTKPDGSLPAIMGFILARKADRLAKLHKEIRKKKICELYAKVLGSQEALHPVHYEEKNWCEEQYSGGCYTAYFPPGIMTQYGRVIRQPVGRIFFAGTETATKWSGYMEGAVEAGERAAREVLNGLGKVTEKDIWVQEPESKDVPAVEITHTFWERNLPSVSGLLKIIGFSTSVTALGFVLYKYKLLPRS

[21] = Selectivity index, ratio of IC50 for electric eel AChE to IC50 for equine BChE
Cholinesterase [22] = target: T5, Cholinesterase; assay: Inhibition of equine BChE using acetylthiocholine iodide as substrate preincubated for 10 mins followed by substrate addition by Ellman's method

T2 sequence (P22303 whole entry): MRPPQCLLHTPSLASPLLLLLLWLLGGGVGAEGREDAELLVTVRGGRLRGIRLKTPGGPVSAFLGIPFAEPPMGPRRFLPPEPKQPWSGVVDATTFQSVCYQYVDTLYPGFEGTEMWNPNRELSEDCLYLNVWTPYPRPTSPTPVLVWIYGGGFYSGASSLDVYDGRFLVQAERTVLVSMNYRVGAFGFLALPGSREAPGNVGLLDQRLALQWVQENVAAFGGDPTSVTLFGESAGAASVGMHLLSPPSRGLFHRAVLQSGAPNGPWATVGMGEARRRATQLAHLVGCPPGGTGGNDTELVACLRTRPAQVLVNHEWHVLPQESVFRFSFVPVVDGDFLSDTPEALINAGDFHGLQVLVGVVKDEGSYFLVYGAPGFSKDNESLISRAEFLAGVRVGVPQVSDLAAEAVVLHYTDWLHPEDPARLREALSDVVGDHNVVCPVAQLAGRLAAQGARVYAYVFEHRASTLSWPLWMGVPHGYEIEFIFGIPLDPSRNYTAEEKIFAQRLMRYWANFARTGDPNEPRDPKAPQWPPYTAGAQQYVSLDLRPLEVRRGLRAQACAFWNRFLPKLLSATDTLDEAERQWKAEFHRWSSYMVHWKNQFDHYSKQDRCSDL
T3 sequence (P06276 whole entry): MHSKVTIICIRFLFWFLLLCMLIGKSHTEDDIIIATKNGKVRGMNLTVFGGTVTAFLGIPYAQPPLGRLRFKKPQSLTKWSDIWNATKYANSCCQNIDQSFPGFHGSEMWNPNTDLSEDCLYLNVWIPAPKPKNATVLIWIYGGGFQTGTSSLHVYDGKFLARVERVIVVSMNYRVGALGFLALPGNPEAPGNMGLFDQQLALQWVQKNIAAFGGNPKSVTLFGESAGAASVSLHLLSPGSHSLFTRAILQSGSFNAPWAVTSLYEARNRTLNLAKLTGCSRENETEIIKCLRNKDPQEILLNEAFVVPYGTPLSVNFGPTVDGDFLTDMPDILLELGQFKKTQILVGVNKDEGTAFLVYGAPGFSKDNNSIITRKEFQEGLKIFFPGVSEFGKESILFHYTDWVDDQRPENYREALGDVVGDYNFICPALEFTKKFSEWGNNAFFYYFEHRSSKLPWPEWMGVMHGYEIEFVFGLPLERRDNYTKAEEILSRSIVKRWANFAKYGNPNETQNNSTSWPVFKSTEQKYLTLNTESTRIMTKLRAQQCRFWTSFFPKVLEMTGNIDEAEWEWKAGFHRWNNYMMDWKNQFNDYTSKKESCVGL
T1 sequence (P06276 whole entry, looked up): as the sequence (P06276 whole entry) above
T1 sequence (P22303 whole entry, looked up): as the sequence (P22303 whole entry) above

O=C(Oc1cc(O)c2c(=O)cc(-c3ccc(O)cc3)oc2c1)N1CCCCC1
Ratio IC50 [1]: 665 | IC50 (Acetylcholinesterase [2]): 62500 nM | IC50 (Cholinesterase [3]): 94 nM

COC(=O)CCC/C=C\C/C=C\C/C=C\CCOC(=O)Nc1ccc(OC)cc1
IC50 (Acetylcholinesterase [4]): 24800 nM | Ki (Acetylcholinesterase [5]): 3480 nM

CCCCCCCNC(=O)OCCN1CCN(CCCCCOc2ccc3ccc(=O)[nH]c3c2)CC1
IC50 (Cholinesterase [6]): 1800 nM | IC50 (Acetylcholinesterase [7]): 390 nM

CNC(=O)Oc1cccc(CN(C)CCCCCCCOc2ccc(-c3cc4ccccc4oc3=O)cc2)c1
IC50 (Cholinesterase [8]): 59.4 nM | IC50 (Acetylcholinesterase [9]): 1.2 nM | Ratio IC50 [10]: 49

CCC(C)(C)NCC(O)c1cc(O)cc(OC(=O)N(C)C)c1 (centres undefined)
Ratio IC50 [1]: 400 | IC50 (Acetylcholinesterase [2]): 20000 nM | IC50 (Cholinesterase [3]): 50 nM

CC(C)c1ccc(NC(=O)Oc2ccc3c(c2)C2(C)COC(C2)O3)cc1 (centres undefined)
Ratio IC50 [11]: 195

COc1cc(/C=C/c2ccc(OC(=O)N3CCN(C)CC3)cc2)cc(OC)c1
IC50 (Acetylcholinesterase [12]): 8580 nM

O=c1ccc2ccc(OCCCCSC(=S)N3CCCCC3)cc2[nH]1
IC50 (Cholinesterase [6]): 160 nM

CCNC(=O)Oc1ccc2c(c1)[C@]1(C)CCO[C@@H]1O2
IC50 (Cholinesterase [13]): 6 nM | Ratio IC50 [11]: 60 | IC50 (Acetylcholinesterase [14]): 36 nM

CNC(=O)Oc1cccc(CN(C)CCCCCCOc2ccc(C(=O)/C=C/c3cc(OC)c(OC)c(OC)c3)c(O)c2)c1
IC50 (Acetylcholinesterase [15]): 1.33 nM | IC50 (Cholinesterase [16]): 30.2 nM | Ratio IC50 [10]: 23

COc1ccc2[nH]cc(CCC(=O)CCCCCCNC(=O)Oc3ccc4c(c3)CN3CCc5ccccc5C3N4C)c2c1 (centres undefined)
IC50 (Cholinesterase [13]): 102 nM

CC(C)c1ccc(NC(=O)Oc2ccc3c(c2)[C@]2(C)CCN[C@@H]2N3)cc1
Ratio IC50 [11]: 110

CN1c2ccc(OC(=O)NCC3CCCCC3)cc2[C@]2(C)CCN(CCc3ccccc3)[C@H]12
Ratio IC50 [11]: 1390 | IC50 (Acetylcholinesterase [14]): 2500 nM

CN1CCN(C(=O)Oc2ccc(-c3coc4cc(OC(=O)N5CCN(C)CC5)ccc4c3=O)cc2)CC1
IC50 (Acetylcholinesterase [17]): 1200 nM

C#CCNC1CCc2c(OC(=O)N(C)C)cccc21 (centres undefined)
IC50 (Acetylcholinesterase [18]): 86000 nM | IC50 [19]: 260 nM | IC50 [20]: 53 nM

CN1CCN(C(=O)Oc2ccc(/C=C/c3cc(OC(=O)N4CCN(C)CC4)cc(OC(=O)N4CCN(C)CC4)c3)cc2)CC1
IC50 (Acetylcholinesterase [12]): 6970 nM

C#CCNC1CCc2c(OC(=O)N(C)CC)cccc21 (centres undefined)
IC50 (Acetylcholinesterase [18]): 150000 nM | IC50 [19]: 830 nM | IC50 [20]: 19 nM | IC50 (Cholinesterase [3]): 2150 nM

CNC(=O)Oc1cccc(CN(C)CCCCCCOc2ccc3c(c2)O/C(=C\c2cc(OC)c(OC)c(OC)c2)C3=O)c1
IC50 (Acetylcholinesterase [15]): 0.52 nM | IC50 (Cholinesterase [16]): 136 nM | Ratio IC50 [10]: 261

COc1cc(/C=C/C(=O)NCCCCNC(=O)Oc2ccc3c(c2)CN2CCc4ccccc4C2N3C)ccc1O (centres undefined)
IC50 (Cholinesterase [13]): 102 nM

CCC(C)(C)NCC(O)c1cc(OC(=O)N(C)C)cc(OC(=O)N(C)C)c1 (centres undefined)
Ratio IC50 [21]: > 796

Cc1ccccc1NC(=O)Oc1ccc2c(c1)[C@]1(C)CCO[C@@H]1O2
IC50 (Cholinesterase [13]): > 30000 nM

COc1ccccc1-c1ccc(=O)n(COC(=O)Nc2ccc(C)cc2)n1
IC50 (Cholinesterase [22]): 34500 nM

CCCCCCCNC(=O)Oc1ccc2[nH]cc(CCNC(=O)c3ccccc3Nc3ccccc3)c2c1
IC50 (Cholinesterase [6]): 7 nM | Ratio IC50 [21]: > 10000 | IC50 (Acetylcholinesterase [7]): > 100000 nM

CN(C)C(=O)Oc1cccc(-c2coc3c4c(ccc3c2=O)OC(C)(C)C=C4)c1
IC50 (Cholinesterase [6]): 680 nM | Ratio IC50 [21]: 49.3 | IC50 (Acetylcholinesterase [7]): 33600 nM

CCCCCCNC(=O)OCn1nc(-c2ccccc2OC)ccc1=O
IC50 (Cholinesterase [22]): 35000 nM

Reference: ChEMBL document CHEMBL5214927, “Recent advance on carbamate-based cholinesterase inhibitors as potential multifunctional agents against Alzheimer's disease” (Eur J Med Chem, 2022)
